Structures can show the parent of a compound that is named as a salt.

From patent US20100075960A1 (priority 2006, published 2010) come the findings set out here.

In the assay the test system is HCT116. The assay is described as follows: Inhibition of cell proliferation, HCT116. The class given is cell-based. Conditions: Homo sapiens, HCT-116; 72 h treatment; methylene blue or CellTiter-Glo. Here is the method:
II. Inhibition of Cell Proliferation by PLK1 Inhibitors.
Exponentially growing cell lines of different tumor origins, cultured in appropriate media containing 10% fetal bovine serum at 37° C. in a 5% CO2 incubator were plated in 96 or 384-well plates. Twenty four hours post-plating, cells were treated with different concentrations of test compounds ranging from 20 μM to 0.04 nM. Several wells were left untreated as a control. Seventy two hours post-treatment, cell numbers were determined using different techniques; 100 μl per well of methylene blue (Sigma M9140) (0.5% in 50:50 Ethanol:water), or 10-100 μl per well of CellTiter-Glo (Promega #G7573), depending on well size. For methylene blue staining, stain was incubated at room temperature for 30 minutes before plates were rinsed and dye solubilized in 1% N-lauroyl sarcosine, sodium salt, (Sigma L5125, in PBS). Plates were read on a microplate reader, measuring the OD at 620 nm. For CellTiter-Glo, plates were incubated at room temperature for 15 minutes and the chemiluminescent signal was read on the Victor V or Envison 2100 reader.
Percent inhibition of cell growth was expressed as percent proliferation relative to 100% proliferation (control). Concentration of test compound that inhibited 50% of cell growth (IC50) was determined by 4 parameter fit of data using XLfit, (value of no cell control was substracted from all samples for background). The data are shown in Table 1 and Table 2 below and represent a compilation of several different experiments each performed using the general parameters outlined above, although minor variations may have been employed in some instances, in Table 1 and Table 2, +=IC50>1 μM; ++=IC50 0.5-1 μM: +++=IC50<0.5 μM.
The compound `CC(Oc1cc(-n2cnc3cc(-c4cnn(C)c4)ccc32)sc1C(N)=O)c1cccc(OC2CCNCC2)c1` (racemic) [Example 73, (±)-5-[5-(1-Methyl-1H-pyrazol-4-yl)-1H-benzimidazol-1yl[-3-({1-[3-(4-piperidinyloxy)phenyl]ethyl}oxy)-2-thiophenecarboxamide] gave a concentration for half-maximal inhibition (IC50) of over 1000 nM.
For `C[C@@H](Oc1cc(-n2cnc3cc(Cl)ccc32)sc1C(N)=O)c1cccc(OC2CCN(CCO)CC2)c1Cl` [Example 20, 5-(5-Chloro-1H-benzimidazol-1-yl)-3-{((1R)-1-(2-chloro-3-{[1-(2-hydroxyethyl)-4-piperidinyl]oxy}phenyl)ethyl]oxy}-2-thiophenecarboxamide] the value was under 500 nM.
For `Cc1nnc(-c2ccc3c(c2)ncn3-c2cc(O[C@H](C)c3cccc(OC4CCN(C)CC4)c3Cl)c(C(N)=O)s2)o1` [Example 88] the value was under 500 nM.
In the case of `C[C@@H](Oc1cc(-n2cnc3cc(-c4cnn(C)c4)ccc32)sc1C(N)=O)c1cccc(OCC2CCNCC2)c1Cl` [Example 44, 3-[((1R)-1-{2-Chloro-3-[(4-piperidinylmethyl)oxy]phenyl}ethyl)oxy]-5-[5-(1-methyl-1H-pyrazol-4-yl)-1H-benzimidazol-1-yl]-2-thiophenecarboxamide trifluoroacetate], the IC50 is under 500 nM.
Next, `C[C@@H](Oc1cc(-n2cnc3cc(Cl)ccc32)sc1C(N)=O)c1cccc(OC[C@@H]2CNCCO2)c1Cl` [Example 28, 5-(5-Chloro-1H-benzimidazol-1-yl)-3-{[(1R)-1-(2-chloro-3-{[(2S)-2-morpholinomethyl]oxy}phenyl)ethyl]oxy}-2-thiophenecarboxamide]: under 500 nM; `C[C@@H](Oc1cc(-n2cnc3cc(-c4cnn(C)c4)ccc32)sc1C(N)=O)c1ccc(F)c(OC2CCNCC2)c1Cl` [Example 33, 3-({(1R)-1-[2-Chloro-4-fluoro-3-(4-piperidinyloxy)phenyl]ethyl}oxy)-5-[5-(1-methyl-1H-pyrazol-4-yl)-1H-benzimidazol-1-yl]-2-thiophenecarboxamide]: under 500 nM; `C[C@@H](Oc1cc(-n2cnc3cc(F)c(Cl)cc32)sc1C(N)=O)c1cccc(OC2CCNCC2)c1Cl` [Example 69, 5-(6-Chloro-5-fluoro-1H-benzimidazol-1-yl)-3-({(1R)-1-[2-chloro-3-(4-piperidinyloxy)phenyl]ethyl}oxy)-2-thiophenecarboxamide]: under 500 nM.
For `CC(Oc1cc(-n2cnc3cc(-c4cnn(C)c4)ccc32)sc1C(N)=O)c1ccnc(OC2CCN(C)CC2)n1` (racemic) [Example 78, (±)-3-[(1-(2-[(1-methyl-4-piperidinyl)oxy]-4-pyrimidinyl}ethyl)oxy]-5-[5-(1-methyl-1H-pyrazol-4-yl)-1H-benzimidazol-1-yl]-2-thiophenecarboxamide], the half-maximal inhibitory concentration (IC50) is over 1000 nM.
For `CC(Oc1cc(-n2cnc3cc(-c4cnn(C)c4)ccc32)sc1C(N)=O)c1cc(OC2CCNCC2)ccn1` (stereo not shown) [Example 85, 5-[5-(1-Methyl-1H-pyrazol-4-yl)-1H-benzimidazol-1-yl]-3-({1-[4-(4-piperidinyloxy)-2-pyridinyl]ethyl}oxy)-2-thiophenecarboxamide] the value was over 1000 nM; for `C[C@@H](Oc1cc(-n2cnc3ccc(CS(C)(=O)=O)cc32)sc1C(N)=O)c1cccc(OCC2CCNCC2)c1Cl` [Example 56, 3-[((1R)-1-{2-chloro-3-[(4-piperidinylmethyl)oxy]phenyl}ethyl)oxy]-5-{6-[(methylsulfonyl)-methyl]-1H-benzimidazol-1-yl}-2-thiophenecarboxamide], over 1000 nM.
Next, `C[C@@H](Oc1cc(-n2cnc3ccc(CS(C)(=O)=O)cc32)sc1C(N)=O)c1cccc(OC2CCN(C)CC2)c1Cl` [Example 55, 3-[((1R)-1-(2-chloro-3-[(1-methyl-4-piperidinyl)oxy]phenyl}ethyl)oxy]-5-(6-[(methylsulfonyl)methyl]1H-benzimidazol-1-yl}-2-thiophenecarboxamide]: over 1000 nM.
With `Cc1cc(-c2ccc3c(c2)ncn3-c2cc(O[C@H](C)c3cccc(OC4CCN(C)CC4)c3Cl)c(C(N)=O)s2)ccn1` [Example 50, 3-[((1R)-1-{2-Chloro-3-[(1-methyl-4-piperidinyl)oxy]phenyl}ethyl)oxy]-5-[5-(2-methyl-4-pyridinyl)-1H-benzimidazol-1-yl]-2-thiophenecarboxamide], the IC50 is under 500 nM.
For `CC(Oc1cc(-n2cnc3cc(-c4cnn(C)c4)ccc32)sc1C(N)=O)c1ccnc(OC2CCNCC2)n1` (racemic) [Example 77, (±)-5-[5-(1-Methyl-1H-pyrazol-4-yl)-1H-benzimidazol-1-yl]-3-({1-[2-(4-piperidinyloxy-4-pyrimidinyl]ethyl}oxy)-2-thiophenecarboxamide] the value was over 1000 nM; for `C[C@@H](Oc1cc(-n2cnc3cc(-c4cnn(C)c4)ccc32)sc1C(N)=O)c1ccc(F)c(OC2CCN(C)CC2)c1Cl` [Example 34, 3-[((1R)-1-{2-Chloro-4-fluoro-3-[(1-methyl-4-piperidinyl)oxy]phenyl}ethyl)oxy]-5-[5-(1-methyl-1H-pyrazol-4-yl)-1H-benzimidazol-1-yl]-2-thiophenecarboxamide trifluoroacetate], under 500 nM; for `C[C@@H](Oc1cc(-n2cnc3cc(OC(F)(F)F)ccc32)sc1C(N)=O)c1cccc(OC2CCN(C)CC2)c1Cl` [Example 62, 3-[((1R)-1-{2-chloro-3-[(1-methyl-4-piperidinyl)oxy]phenyl}ethyl)oxy]-5-{5-[(trifluoromethyl)oxy]-1H-benzimidazol-1-yl}-2-thiophenecarboxamide], under 500 nM.
For `C[C@@H](Oc1cc(-n2cnc3cc(-c4cnn(C)c4)ccc32)sc1C(N)=O)c1ccc(F)c(OC2CCN(CCS(C)(=O)=O)CC2)c1Cl` [Example 36, 3-({(1R)-1-[2-Chloro-4-fluoro-3-({1-[2-(methylsulfonyl)ethyl]-4-piperidinyl}oxy)phenyl]ethyl}oxy)-5-[5-(1-methyl-1H-pyrazol-4-yl)-1H-benzimidazol-1-yl]-2-thiophenecarboxamide] the value was under 500 nM; for `C[C@@H](Oc1cc(-n2cnc3ccccc32)sc1C(N)=O)c1cccc(OCCN2CCOCC2)c1Cl` [Example 15, 5-(1H-benzimidazol-1-yl)-3-{[(1R)-1-(2-chloro-3-{[2-(4-morpholinyl)ethyl]oxy}phenyl)ethyl]oxy)-2-thiophenecarboxamide], under 500 nM; for `C[C@@H](Oc1cc(-n2cnc3cc(F)c(F)cc32)sc1C(N)=O)c1cccc(OC2CCNCC2)c1Cl` [Example 65, 3-({(1R)-1-[2-chloro-3-(4-piperidinyloxy)phenyl]ethyl}oxy)-5-(5,6-difluoro-1H-benzimidazol-1-yl)-2-thiophenecarboxamide], under 500 nM.
Next, `C[C@@H](Oc1cc(-n2cnc3cc(-c4cccnc4)ccc32)sc1C(N)=O)c1cccc(OC2CCNCC2)c1Cl` [Example 12, 3-({(1R)-1-[2-chloro-3-(4-piperidinyloxy)phenyl]ethyl}oxy)-5-[5-(3-pyridinyl)-1H-benzimidazol-1-yl]-2-thiophenecarboxamide]: under 500 nM.
For the compound `CCN1CCC(Oc2cccc([C@@H](C)Oc3cc(-n4cnc5cc(Cl)ccc54)sc3C(N)=O)c2Cl)CC1` [Example 19, 5-(5-Chloro-1H-benzimidazol-1-yl)-3-[((1R)-1-{2-chloro-3-[(1-ethyl-4-piperidinyl)oxy]phenyl}ethyl)oxy]-2-thiophenecarboxamide], the IC50 was under 500 nM.
For `C[C@@H](Oc1cc(-n2cnc3ccccc32)sc1C(N)=O)c1cccc(OCCN2CCNCC2)c1Cl` [Example 16, 5-(1H-benzimidazol-1-yl)-3-{[(1R)-1-(2-chloro-3-{[2-(1-piperazinyl)ethyl]oxy}phenyl)ethyl]oxy}-2-thiophenecarboxamide], the IC50 was under 500 nM.
Consider `C[C@@H](Oc1cc(-n2cnc3cc(Cl)ccc32)sc1C(N)=O)c1cccc(OC2CCN(CCS(C)(=O)=O)CC2)c1Cl` [Example 23, 5-(5-Chloro-1H-benzimidazol-1-yl)-3-({(1R)-1-[2-chloro-3-({1-[2-(methylsulfonyl)ethyl]-4-piperidinyl}oxy)phenyl]ethyl}oxy)-2-thiophenecarboxamide], for which the IC50 was under 500 nM.
For `C[C@@H](Oc1cc(-n2cnc3cc(-c4cnn(C)c4)ccc32)sc1C(N)=O)c1c(F)ccc(OC2CCN(C)CC2)c1Cl` [Example 38, 3-[((1R)-1-{2-Chloro-6-fluoro-3-[(1-methyl-4-piperidinyl)oxy]phenyl}ethyl)oxy]-5-[5-(1-methyl-1H-pyrazol-4-yl)-1H-benzimidazol-1-yl]-2-thiophenecarboxamide] the value was under 500 nM; for `COc1cc2ncn(-c3cc(O[C@H](C)c4cccc(NCC5CCNCC5)c4Cl)c(C(N)=O)s3)c2cc1OC` [Example 1], 500 to 1000 nM; for `Cc1ccc(-c2ccc3c(c2)ncn3-c2cc(O[C@H](C)c3cccc(OC4CCNCC4)c3Cl)c(C(N)=O)s2)cn1` [Example 9, 3-({(1R)-1-[2-chloro-3-(4-piperidinyloxy)phenyl]ethyl}oxy)-5-[5-(6-methyl-3-pyridinyl)-1H-benzimidazol-1-yl]-2-thiophenecarboxamide], under 500 nM.

What is called IC50 is the concentration that gives 50% inhibition.
